Values after ≈ are worked out from the molar mass of the structure shown.

From ChEMBL document CHEMBL5257085, “Siderophores: Chemical tools for precise antibiotic delivery” (Bioorg Med Chem Lett, 2023) come the findings set out here.

Experiment [1] relates to Pseudomonas aeruginosa. The experiment can be described thus: Antibacterial activity against Pseudomonas aeruginosa assessed as inhibition of bacterial growth incubated for 18 to 48 hrs by two-fold serial dilution method. The conditions noted are these: time 18-48 hrs. Type of experiment: functional.
The subject of experiment [2] is Stenotrophomonas maltophilia. In words: Antibacterial activity against L1 producing Stenotrophomonas maltophilia assessed as inhibition of bacterial growth by CLSI protocol based broth microdilution method. Type of experiment: functional.
The test system of experiment [3] is Escherichia coli. In words: Antibacterial activity against NDM-1 producing Escherichia coli assessed as inhibition of bacterial growth by CLSI protocol based broth microdilution method. Type of experiment: functional. A general note: Dilution methods test growth across graded concentrations, often in twofold steps.
Experiment [4] has as its system Pseudomonas aeruginosa. The experiment can be described thus: Antibacterial activity against IMP-1 producing Pseudomonas aeruginosa assessed as inhibition of bacterial growth by CLSI protocol based broth microdilution method. Type of experiment: functional.
In experiment [5] the test system is Klebsiella pneumoniae. The experiment can be described thus: Antibacterial activity against KPC-3 producing Klebsiella pneumoniae assessed as inhibition of bacterial growth by CLSI protocol based broth microdilution method. Type of experiment: functional.
The test system of experiment [6] is Klebsiella pneumoniae. In words: Antibacterial activity against KPC-2 producing Klebsiella pneumoniae assessed as inhibition of bacterial growth by CLSI protocol based broth microdilution method. Type of experiment: functional.
Experiment [7] relates to Pseudomonas aeruginosa. In words: Antibacterial activity against VIM-2 producing Pseudomonas aeruginosa assessed as inhibition of bacterial growth by CLSI protocol based broth microdilution method. Type of experiment: functional.
The subject of experiment [8] is Klebsiella pneumoniae. In words: Antibacterial activity against NDM-1 producing Klebsiella pneumoniae assessed as inhibition of bacterial growth by CLSI protocol based broth microdilution method. Type of experiment: functional.
Experiment [9] relates to Acinetobacter baumannii. The experiment can be described thus: Antibacterial activity against OXA-23 producing Acinetobacter baumannii assessed as inhibition of bacterial growth by CLSI protocol based broth microdilution method. Type of experiment: functional.
For experiment [10], the system named is Acinetobacter baumannii. In words: Potentiation of imipenem-induced antibacterial activity against OXA-24 producing Acinetobacter baumannii ATCC 17978 assessed as fold change in imipenem MIC. Type of experiment: functional.
The test system of experiment [11] is Acinetobacter baumannii. The experiment can be described thus: Potentiation of imipenem-induced antibacterial activity against OXA-23 producing Acinetobacter baumannii ATCC 17978 assessed as fold change in imipenem MIC. Type of experiment: functional.
For experiment [12], the system named is Acinetobacter baumannii. The experiment can be described thus: Potentiation of imipenem-induced antibacterial activity against OXA-58 producing Acinetobacter baumannii ATCC 17978 assessed as fold change in imipenem MIC. Type of experiment: functional.
Experiment [13] concerns Acinetobacter baumannii. The experiment can be described thus: Potentiation of imipenem-induced antibacterial activity against OXA-235 producing Acinetobacter baumannii ATCC 17978 assessed as fold change in imipenem MIC. Type of experiment: functional.
Experiment [14] deals with Acinetobacter baumannii. The experiment can be described thus: Potentiation of imipenem-induced antibacterial activity against OXA-143 producing Acinetobacter baumannii ATCC 17978 assessed as fold change in imipenem MIC. Type of experiment: functional.
The test system of experiment [15] is Escherichia coli. The experiment can be described thus: Antibacterial activity against Escherichia coli JW5503 harbouring tolC-knock out mutant assessed as inhibition of bacterial growth incubated for 24 hrs by CLSI protocol based broth microdilution method. Type of experiment: functional.
The target of experiment [16] is DNA gyrase (Escherichia coli, UniProt P0AES4+P0AES6). The experiment can be described thus: Inhibition of Escherichia coli DNA gyrase ATPase activity using pBR322 as substrate incubated for 10 mins in presence of NADH and ATP by supercoiling assay. Type of experiment: protein-complex assay.

As for `CC(=O)NC[C@H]1CN(c2ccc(N3CCN(C(=O)Cn4cc(COC(=O)NCCCCNC(=O)c5cccc(O)c5O)nn4)CC3)c(F)c2)C(=O)O1`, the minimal inhibitory concentration (MIC) (usually the least concentration at which growth counts as inhibited) in experiment [1] was found to be 128 µM (≈ 92.9 µg/mL).

Consider `CC(C)(O/N=C(\C(=O)N[C@@H]1C(=O)N2C(C(=O)[O-])=C(C[N+]3(CCNC(=O)c4ccc(O)c(O)c4Cl)CCCC3)CS[C@H]12)c1csc(N)n1)C(=O)O` [CEFIDEROCOL], for which the MIC50 in experiment [2], in experiment [3], in experiment [4], in experiment [5], in [6] and in [7] was 0.12 µg/mL (≈ 0.16 µM) each time. The MIC50 in experiment [8] and in [9] was 0.12 µg/mL (≈ 0.16 µM) throughout.

In the case of `CC(=O)NC[C@H]1CN(c2ccc(N3CCOCC3)c(F)c2)C(=O)O1` [LINEZOLID], the MIC in experiment [1] is over 1020 µM.

In the case of `C[C@]1(COC(=O)Cc2ccc(O)c(O)c2)[C@H](C(=O)O)N2C(=O)/C(=C/c3ccccn3)[C@H]2S1(=O)=O`, the “fold change (FC)” value in experiment [10], in experiment [11], in experiment [12], in experiment [13] and in experiment [14] was 32 each time.

In the case of `Cc1[nH]c(C(=O)N[C@H]2CCc3nc(NC(=O)CNC(=O)c4ccc(O)c(O)c4)sc3C2)c(Cl)c1Cl`, the MIC in [15] is 14 µg/mL (≈ 26 µM). Also, in experiment [16], the IC50 (usually the concentration at which inhibition is half-maximal) came to 58 nM.
